In the series the test system is event MON 87427 hybrids. The class given is in vivo, maize. Particulars: two successive sprays at 2.25 lb a.e./acre each. The text has this:
This illustrates that the F1 hybrid plants from event MON 87427 crosses are fully tolerant to glyphosate when used for weed control.

As to `O=C(O)CNCP(=O)(O)O` [glyphosate, N-phosphonomethylglycine], the “injury or male fertility compared with NK603 hybrid” value was “no difference was observed in injury or male fertility”.

The values are drawn from patent US20260226497A1, “TRANSGENIC MAIZE EVENT MON 87427” (Monsanto Technology LLC, priority 2009, published 2026).
